Data taken from article PMC6616483, “Non-Pungent n-3 Polyunsaturated Fatty Acid (PUFA)-Derived Capsaicin Analogues as Potential Functional Ingredients with Antioxidant and Carbohydrate-Hydrolysing Enzyme Inhibitory Activities” (Antioxidants, 2019).
Several values for one entry are separate records, joined by “and”; a condition that tells them apart may be missing. Equal entries are not always repeated. Where two headings read alike, the source gives them in different places.

Legend:
[1] = DPPH free radical scavenging assay; details: means ± S.D. (n = 3); NA: not active at maximum concentration tested; read-out: DPPH Test IC50
Description: The DPPH assay was performed according to a previously reported protocol. Absorbance was measured at 517 nm using a UV-Vis spectrophotometer (model V-550, Jasco, Milan, Italy). Ascorbic acid was used as positive control.

ABTS assay = details: means ± S.D. (n = 3); NA: not active at maximum concentration tested; read-out: ABTS Test IC50
Description: The ABTS assay was performed according to a previously reported protocol. Absorbance was measured at 734 nm using a UV-Vis spectrophotometer (model V-550, Jasco, Milan, Italy) Ascorbic acid was used as positive control.

[2] = Ferric reducing ability power (FRAP) test; details: means ± S.D. (n = 3)
Description: The FRAP test was performed following the protocol previously described. Absorbance was measured using a UV-Vis spectrophotometer (model V-550, Jasco, Milan, Italy) at 470 nm. FRAP value was expressed as mM Fe(II)/g. Butylated hydroxytoluene (BHT) was used as a positive control.

α-glucosidase = assay: α-Glucosidase inhibitory assay; assay type: biochemical; details: for Ki: calculated following the Cheng–Prusoff equation; for IC50 / α-Glucosidase IC50: means ± S.D. (n = 3)
Description: The α-glucosidase inhibitory assay was achieved following the procedure previously described. Absorbance was measured at 500 nm using a UV-Vis spectrophotometer (model V-550, Jasco, Milan, Italy). […] Ki value was calculated as previously described.

[3] = β-Carotene bleaching test
Description: The β-carotene bleaching test was performed as previously described. The absorbance of the samples, standard, and control was measured using a UV-Vis spectrophotometer (model V-550, Jasco, Milan, Italy) at 470 nm against a blank at t = 0 and successively at 30 and 60 min. Propyl gallate was used as positive control.

β-cells = system: β-cells; design: method as in PMID 31022842; details: cited from earlier work
type 1 diabetic rats = system: type 1 diabetic rats; design: method as in PMID 28230360; details: orally 6 mg/Kg for 28 days; cited from earlier work
healthy human subjects = system: healthy human subjects; design: method as in PMID 16612838; details: oral administration; cited from earlier work
α-amylase = target: T1, α-amylase (Sus scrofa, UniProt P00690); assay: α-Amylase inhibitory assay; assay type: biochemical; details: means ± S.D. (n = 3)
T1 sequence (P00690 16-511): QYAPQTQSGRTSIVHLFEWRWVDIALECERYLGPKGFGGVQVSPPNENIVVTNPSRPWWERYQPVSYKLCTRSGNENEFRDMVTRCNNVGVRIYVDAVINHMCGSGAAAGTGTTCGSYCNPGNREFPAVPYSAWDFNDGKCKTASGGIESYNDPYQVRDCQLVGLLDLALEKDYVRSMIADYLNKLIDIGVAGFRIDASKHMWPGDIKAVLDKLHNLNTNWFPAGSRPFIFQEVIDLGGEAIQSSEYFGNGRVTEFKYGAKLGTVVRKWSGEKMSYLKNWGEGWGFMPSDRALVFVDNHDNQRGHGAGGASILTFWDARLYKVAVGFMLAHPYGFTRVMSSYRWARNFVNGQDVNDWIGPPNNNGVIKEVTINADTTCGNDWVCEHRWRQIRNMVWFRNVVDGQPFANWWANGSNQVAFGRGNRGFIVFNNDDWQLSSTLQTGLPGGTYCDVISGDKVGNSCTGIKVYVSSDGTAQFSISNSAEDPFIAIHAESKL
Description: The α-amylase inhibition assay was accomplished as previously described. Absorbance was measured at 540 nm using a UV-Vis spectrophotometer (model V-550, Jasco, Milan, Italy). […] Ki values were calculated following the Cheng–Prusoff equation [18].

[4] = read-out: β-Carotene Bleaching Test IC50 30 min, 30 min of incubation
[5] = read-out: β-Carotene Bleaching Test IC50 60 min, 60 min of incubation

Row | Compound | IC50 [1] [nM] | IC50 (ABTS assay) [nM] | FRAP Test [2] | Ki (α-glucosidase) [nM] | IC50 (α-glucosidase) | IC50 [3, 4] [µM] | IC50 [3, 5] [µM] | release of insulin compared to the control (β-cells; 15 min of incubation) | release of insulin compared to the control (β-cells; 120 min of incubation) | intestinal glucose absorption (type 1 diabetic rats) | plasma insulin concentrations after glucose loading (healthy human subjects) | α-Amylase IC50 (α-amylase) | α-Glucosidase IC50 (α-glucosidase)
1 | O=C1O[C@H]([C@@H](O)CO)C(O)=C1O [Ascorbic acid] | 23000 ± 2000 | 9600 ± 900 | – | – | – | – | – | – | – | – | – | – | –
2 | Cc1cc(C(C)(C)C)c(O)c(C(C)(C)C)c1 [BHT, Butylated hydroxytoluene] | – | – | 63 ± 4 μM Fe(II)/g | – | – | – | – | – | – | – | – | – | –
3 | COc1cc(CNC(=O)CCCC/C=C/C(C)C)ccc1O [Capsaicin, capsaicin] | 600 | 300 | 30 ± 3 μM Fe(II)/g | 1000 | 13 ± 1 µM | 10 ± 1 | 11 ± 1 | ineffective | ineffective | inhibited intestinal glucose absorption | did not significantly differ from the control group | – | –
4 | CC/C=C\C/C=C\C/C=C\C/C=C\C/C=C\C/C=C\CCC(=O)O [DHA, docosahexaenoic acid] | – | – | 9 ± 1 μM Fe(II)/g | 10000 | 268 ± 9 µM | 70 ± 4 | 287 ± 10 | ineffective | ineffective | – | – | No significant carbohydrate-hydrolysing enzymes inhibition | No significant carbohydrate-hydrolysing enzymes inhibition
5 | CC/C=C\C/C=C\C/C=C\C/C=C\C/C=C\C/C=C\CCC(=O)NCc1ccc(O)c(OC)c1 [DHVA, N-docosahexaenoyl vanillylamine] | 800 | 300 | 18 ± 2 μM Fe(II)/g | 2000 | 23.9 µM and 24 µM | 46 ± 3 | 56 ± 3 | ineffective | slight decrease | – | – | – | –
6 | CC/C=C\C/C=C\C/C=C\C/C=C\C/C=C\CCCC(=O)O [EPA, eicosapentaenoic acid] | – | – | 4.8 ± 0.8 μM Fe(II)/g | 10000 | 250 ± 9 µM | 74 ± 5 | 310 ± 10 | ineffective | ineffective | – | – | No significant carbohydrate-hydrolysing enzymes inhibition | No significant carbohydrate-hydrolysing enzymes inhibition
7 | CC/C=C\C/C=C\C/C=C\C/C=C\C/C=C\CCCC(=O)NCc1ccc(O)c(OC)c1 [EPVA, N-eicosapentaenoyl vanillylamine] | 1000 | 200 | 28 ± 2 μM Fe(II)/g | 2000 | 23.6 µM and 24 µM | 9 ± 1 | 11 ± 1 | significant increase | significant increase | – | – | – | –
8 | CCCOC(=O)c1cc(O)c(O)c(O)c1 [Propyl gallate] | – | – | – | – | – | 0.4 | 0.4 | – | – | – | – | – | –
9 | COc1cc(COC(=O)CCCC/C=C/C(C)C)ccc1O [capsiate] | – | – | – | – | – | – | – | – | – | inhibited intestinal glucose absorption | – | – | –
